Test results: patent publication US10779550B2, “Human milk oligosaccharides to ameliorate symptoms of stress” (ABBOTT LABORATORIES, priority 2012, dated 2020)
Marks after values point to notes of the source that are not given here.

Columns and labels:
[1] = test system: fecal samples taken from breast-fed infants (BF) (intestinal flora); test: Anaerobic fermentation of HMOs with fecal inocula from breast-fed infants; GABA and agmatine in supernatant by GC/MS and LC/MS/MS; type: cell-based, human; details: for GABA, ratio HMO/blank / agmatine, ratio HMO/blank: breast fed infants, fermentation 37° C.; for GABA and agmatine relative to a blank (in words): breast-fed infants (BF) fecal fermentation cultures
Method: (§1) Fecal samples from eight human babies, one group of four breast-fed and the other group of four formula-fed, were used as inocula for anaerobic fermentation (37° C.) of lacto-N-neotetraose (LNnT) and 6′-sialyllactose. Supernatants from the fermentation cultures were sampled at 0 hr, 3 hr, and 6 hr. A culture without addition of HMOs served as a control. A sample of the fermentation medium (blank), which constituted approximately 90% of the starting culture volume, was also analyzed.
(§2) Samples were extracted and split into equal parts for analysis on GC/MS and LC/MS/MS platforms. GABA and agmatine ions were identified in chromatograms, and peak area was integrated for quantitative analysis.

[2] = test system: fecal samples taken from formula-fed infants (FF) (intestinal flora); test: Anaerobic fermentation of HMOs with fecal inocula from formula-fed infants; GABA and agmatine in supernatant by GC/MS and LC/MS/MS; type: cell-based, human; details: for GABA, ratio HMO/blank / agmatine, ratio HMO/blank: formula fed infants, fermentation 37° C.; for GABA and agmatine relative to a blank (in words): formula-fed infants (FF) fecal fermentation cultures
Method: as §1, §2

Row | SMILES | GABA, ratio HMO/blank ([1]; 0 h) | agmatine, ratio HMO/blank ([1]; 0 h) | GABA, ratio HMO/blank ([1]; 3 h) | agmatine, ratio HMO/blank ([1]; 3 h) | GABA, ratio HMO/blank ([1]; 6 h) | agmatine, ratio HMO/blank ([1]; 6 h) | GABA and agmatine relative to a blank (in words) [1] | GABA, ratio HMO/blank ([2]; 0 h) | agmatine, ratio HMO/blank ([2]; 0 h) | GABA, ratio HMO/blank ([2]; 3 h) | agmatine, ratio HMO/blank ([2]; 3 h) | GABA, ratio HMO/blank ([2]; 6 h) | agmatine, ratio HMO/blank ([2]; 6 h) | GABA and agmatine relative to a blank (in words) [2]
1 | CC(=O)N[C@H]1[C@H](O[C@H]2[C@@H](O)[C@@H](CO)O[C@@H](O[C@H]3[C@H](O)[C@@H](O)C(O)O[C@@H]3CO)[C@@H]2O)O[C@H](CO)[C@@H](O[C@@H]2O[C@H](CO)[C@H](O)[C@H](O)[C@H]2O)[C@@H]1O (mixture of isomers) [LNnT, lacto-N-neotetraose] | 3.66 | 9.52^a | 14.78 | 34.4 | 17.46^a | 1.59 | dramatic increases | 3.25 | 2.12 | 27.83^a | 61.77^a | 33.42^a | 75.02^a | dramatic increases
2 | CC(=O)N[C@H]1[C@H]([C@H](O)[C@H](O)CO)O[C@@](OC[C@H]2O[C@@H](O[C@H]3[C@H](O)[C@@H](O)[C@H](O)O[C@@H]3CO)[C@H](O)[C@@H](O)[C@H]2O)(C(=O)O)C[C@@H]1O [6′SL, 6′-sialyllactose] | 1.22 | 8.23^a | 3.53 | 10.51 | 5.32 | 3.43 | dramatic increases | 0.6 | 1.4 | 4.31 | 11.99 | 16.99^a | 3.76 | dramatic increases
